# Assay results from US20100150834A1, “HIGH AFFINITY EPHB RECEPTOR BINDING COMPOUNDS AND METHODS OF USE THEREOF” (priority 2006, published 2010).
# Read-outs that look alike come from different tables or passages of the source. No end group written: not given here.
# Legend:
# [1] = target: T1, murine EphB4 (Mus musculus, UniProt P54761); test: Binding ELISA on immobilized murine EphB4-Fc, streptavidin-HRP detection (Table 3); settings: binding to murine EphB4; based on the estimated concentration of peptide-coupled PEG molecules; read-out: KD ± SE
# T1 construct: purchased R&D Systems 446-B4-200
# T1 sequence (P54761 16-539 limits assumed): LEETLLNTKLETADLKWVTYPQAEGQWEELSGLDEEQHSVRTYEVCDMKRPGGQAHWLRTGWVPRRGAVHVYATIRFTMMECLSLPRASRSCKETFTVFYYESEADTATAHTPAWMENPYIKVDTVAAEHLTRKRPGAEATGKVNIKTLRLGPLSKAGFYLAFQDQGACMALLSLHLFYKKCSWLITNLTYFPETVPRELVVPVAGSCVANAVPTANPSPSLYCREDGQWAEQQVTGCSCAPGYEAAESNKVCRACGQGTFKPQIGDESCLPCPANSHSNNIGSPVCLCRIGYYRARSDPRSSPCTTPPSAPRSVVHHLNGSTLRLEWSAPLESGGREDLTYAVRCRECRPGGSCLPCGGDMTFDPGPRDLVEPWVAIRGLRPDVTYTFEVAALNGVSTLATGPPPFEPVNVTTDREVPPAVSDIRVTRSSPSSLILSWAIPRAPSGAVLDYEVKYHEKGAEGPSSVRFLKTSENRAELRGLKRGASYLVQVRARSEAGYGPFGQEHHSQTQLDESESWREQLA
# Procedure: The dissociation constants in Table 3 were measured in binding assays as described below. Reacti-bind Protein A coated strip plates were washed three times with the wash buffer TBST/Ca (TBS, 0.01% Tween, 1 mM CaCl2). Plates were coated with murine EphB4-Fc (reconstituted in PBS 200 μg/ml, diluted to 1 μg/ml in TBST/Ca) 100 μl/well for 1 hour at ambient temperature. The plates were washed four times with TBST/Ca. PEG-TNYL-RAW-biotin (made by The Burnham Institute, La Jolla, Calif.), obtained from the PEGylation reaction described in Example 2 supra, was added at different concentrations in TBST/Ca (100 μl/well) for 1 hour at ambient temperature. The plates were again washed four times with TBST/Ca. Streptavidin-HRP (1:2000) in 100 μl TBST/Ca was added for 1 hour at ambient temperature. The plates were again washed four times with TBST/Ca.
# [2] = target: T2, murine EphB4/murine ephrin-B2 (Mus musculus, UniProt P54761); test: Inhibition of murine EphB4-AP binding to immobilized murine ephrin-B2-Fc (Table 4); settings: based on the estimated concentration of peptide-coupled PEG molecules, No PEG control not biotinylated
# T2 sequence (P54761 16-539 limits assumed): T1 sequence (P54761 16-539 limits assumed)
# Procedure: The IC50 values in Table 4 were obtained from inhibition assays. […] Reati-bind Protein A coated strip plates were washed three times with wash buffer TBST/Ca. Plates were coated with murine ephrin-B2-Fc (reconstituted in PBS 200 μg/ml, diluted to 1 μg/ml with TBST/Ca) 100 μl/well for 1 h at ambient temperature. The control used was Human-Fc (1 μg/ml; 100 μl/well); Human-Fc is the control for ephrin-B2-Fc, which contains the extracellular domain of ephrin-B2 fused to the Fc portion of human IgG1. The plates were washed four times with TBST/Ca. For each well was added: PEG-TNYL-RAW-biotin, from PEGylation reaction in Example 2, supra, at different concentrations; 10 μl murine EphB4-Alkaline Phosphatase (EphB4-AP); and TBST/Ca to 50 μl. Plates were incubates for 3 hours at ambient temperature, then washed four times with TBST/Ca. Substrate, 1 mg/ml PNPP in SEAP buffer, was added in the amount of 100 μl/well. (2×SEAP buffer (pH=9.8) was prepared by: adding 2.1 ml diethanolamine and 10 μl 1M MgCl2 to 10 ml (total) water; adjusting pH to 9.8; wrapping in foil and storing at ambient temperature; and diluting with water to 1× on day of use). Optical density analysis (OD405) was performed using a plate reader to determine the extent to which PEG-TNYL-RAW-biotin inhibits the EphB4-ephrin-B2 interaction. […]
# [3] = target: T3, EphB4 (Mus musculus, UniProt P54761); test: EphB receptor specificity (% binding), Table 1; settings: binding to EphB4
# T3 sequence (P54761 16-987): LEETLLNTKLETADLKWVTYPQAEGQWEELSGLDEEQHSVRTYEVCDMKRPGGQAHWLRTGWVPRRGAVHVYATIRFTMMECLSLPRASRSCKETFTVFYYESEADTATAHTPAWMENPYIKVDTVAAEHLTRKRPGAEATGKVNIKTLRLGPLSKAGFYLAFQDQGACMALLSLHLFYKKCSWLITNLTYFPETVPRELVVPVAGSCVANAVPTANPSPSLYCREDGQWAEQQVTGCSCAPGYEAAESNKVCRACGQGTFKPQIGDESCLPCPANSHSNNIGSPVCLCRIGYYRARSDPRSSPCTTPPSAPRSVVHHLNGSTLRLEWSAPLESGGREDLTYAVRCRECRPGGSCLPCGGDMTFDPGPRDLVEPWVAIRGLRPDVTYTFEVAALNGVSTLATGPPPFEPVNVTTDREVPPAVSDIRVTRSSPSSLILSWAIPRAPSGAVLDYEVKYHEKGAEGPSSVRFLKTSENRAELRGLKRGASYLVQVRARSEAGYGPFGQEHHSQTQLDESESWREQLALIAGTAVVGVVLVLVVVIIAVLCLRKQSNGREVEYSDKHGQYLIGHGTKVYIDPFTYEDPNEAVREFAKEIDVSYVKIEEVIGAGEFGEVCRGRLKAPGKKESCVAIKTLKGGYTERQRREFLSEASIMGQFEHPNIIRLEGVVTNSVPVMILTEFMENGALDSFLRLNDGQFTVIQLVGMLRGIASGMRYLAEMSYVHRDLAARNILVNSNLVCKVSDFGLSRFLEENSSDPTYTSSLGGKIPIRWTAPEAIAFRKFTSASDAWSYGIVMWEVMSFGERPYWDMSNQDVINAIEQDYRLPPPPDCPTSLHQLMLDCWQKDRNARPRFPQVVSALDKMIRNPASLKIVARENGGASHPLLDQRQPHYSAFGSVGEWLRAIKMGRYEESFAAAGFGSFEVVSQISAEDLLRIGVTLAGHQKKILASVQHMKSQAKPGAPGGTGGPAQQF
# [4] = system: EphB1; test: EphB receptor specificity (% binding), Table 1; settings: binding to EphB1
# [5] = target: T4, EphB1 (Homo sapiens, UniProt P54762); test: Inhibition of ephrin-B2 AP binding by peptides panned on EphB1 (Table 1)
# T4 sequence (P54762 18-540 limits assumed): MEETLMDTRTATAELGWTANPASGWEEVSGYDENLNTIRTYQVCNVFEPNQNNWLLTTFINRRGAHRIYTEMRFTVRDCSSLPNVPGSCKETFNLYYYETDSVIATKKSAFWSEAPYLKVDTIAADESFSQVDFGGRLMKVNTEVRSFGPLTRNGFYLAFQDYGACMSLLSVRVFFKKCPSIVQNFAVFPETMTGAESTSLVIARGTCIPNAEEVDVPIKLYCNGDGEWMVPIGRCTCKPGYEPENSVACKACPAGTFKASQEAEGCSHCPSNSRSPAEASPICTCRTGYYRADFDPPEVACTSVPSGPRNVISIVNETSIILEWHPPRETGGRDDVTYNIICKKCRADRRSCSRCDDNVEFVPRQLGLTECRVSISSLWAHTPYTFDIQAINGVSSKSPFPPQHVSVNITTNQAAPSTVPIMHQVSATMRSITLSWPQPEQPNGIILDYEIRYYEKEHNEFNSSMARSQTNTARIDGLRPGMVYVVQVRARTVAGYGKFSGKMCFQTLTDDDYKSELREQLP
# [6] = target: EphB2 (Homo sapiens, UniProt P29323); test: EphB receptor specificity (% binding), Table 1; settings: binding to EphB2
# Chain of EphB2 (P29323 19-1055): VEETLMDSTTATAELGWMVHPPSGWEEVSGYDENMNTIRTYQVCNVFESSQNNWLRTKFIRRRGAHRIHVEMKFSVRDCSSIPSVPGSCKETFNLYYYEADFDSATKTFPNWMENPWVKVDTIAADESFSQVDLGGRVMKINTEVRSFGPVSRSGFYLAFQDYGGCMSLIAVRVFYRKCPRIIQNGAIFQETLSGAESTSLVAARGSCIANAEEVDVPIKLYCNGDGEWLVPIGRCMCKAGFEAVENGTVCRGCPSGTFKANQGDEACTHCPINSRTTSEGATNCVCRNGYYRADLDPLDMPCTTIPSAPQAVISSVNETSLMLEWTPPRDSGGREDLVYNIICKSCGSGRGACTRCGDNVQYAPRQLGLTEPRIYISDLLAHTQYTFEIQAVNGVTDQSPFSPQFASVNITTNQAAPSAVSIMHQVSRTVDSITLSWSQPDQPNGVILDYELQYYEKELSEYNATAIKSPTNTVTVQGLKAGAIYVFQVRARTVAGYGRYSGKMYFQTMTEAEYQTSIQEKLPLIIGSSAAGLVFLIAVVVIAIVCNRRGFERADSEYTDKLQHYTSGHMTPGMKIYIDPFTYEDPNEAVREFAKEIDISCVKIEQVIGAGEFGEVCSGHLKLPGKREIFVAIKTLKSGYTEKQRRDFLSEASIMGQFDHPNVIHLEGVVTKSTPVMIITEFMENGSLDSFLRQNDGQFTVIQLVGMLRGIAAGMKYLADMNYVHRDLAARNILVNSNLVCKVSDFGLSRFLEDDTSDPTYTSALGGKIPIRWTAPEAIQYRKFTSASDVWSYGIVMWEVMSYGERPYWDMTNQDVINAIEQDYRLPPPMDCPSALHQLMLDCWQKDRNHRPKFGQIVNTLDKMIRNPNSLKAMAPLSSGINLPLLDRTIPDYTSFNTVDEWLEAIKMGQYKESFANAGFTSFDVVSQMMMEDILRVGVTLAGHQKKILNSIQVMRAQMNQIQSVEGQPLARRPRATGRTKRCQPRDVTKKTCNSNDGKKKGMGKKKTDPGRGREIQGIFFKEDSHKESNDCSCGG
molecule,measurement,setting,value
"3.4 Kd (dimer): two TNYL-RAW peptides (with biotin) conjugated to a 3.4 kDa bifunctional PEG (SMB-PEG-SMB) (TNYLFSPNGPIARAW; also: biotin, position not given here, dimer: two peptides joined by 3.4 kDa bifunctional PEG (SMB-PEG-SMB))",Kd,[1],0.9 ± 0.3 nM
"10 Kd (dimer): two TNYL-RAW peptides (with biotin) conjugated to a 10 kDa bifunctional PEG (SMB-PEG-SMB) (TNYLFSPNGPIARAW; also: biotin, position not given here, dimer: two peptides joined by 10 kDa bifunctional PEG (SMB-PEG-SMB))",Kd,[1],0.9 ± 0.2 nM
same,IC50,[2],9 ± 2 nM
"10 Kd (monomer): one TNYL-RAW peptide (with biotin) conjugated to a 10 kDa PEG molecule (TNYLFSPNGPIARAW; also: conjugated to a 10 kDa PEG, site not given here, biotin, position not given here)",Kd,[1],1.4 ± 0.7 nM
same,IC50,[2],21 ± 5 nM
35 (SGHQLLNKMPN; EphB4-binding peptide) [compound 35],EphB Receptor Specificity (% Binding) B4,[3],100%
CC[C@H](C)[C@H](NC(=O)[C@H](C)NC(=O)[C@H](Cc1ccccc1)NC(=O)[C@@H]1CCCN1C(=O)[C@H](CCC(=O)O)NC(=O)[C@@H](NC(=O)[C@@H](NC(=O)[C@H](Cc1c[nH]c2ccccc12)NC(=O)[C@H](Cc1c[nH]cn1)NC(=O)[C@@H](N)Cc1c[nH]c2ccccc12)[C@@H](C)O)[C@@H](C)CC)C(=O)N[C@H](C(=O)N[C@@H](CO)C(=O)O)[C@@H](C)O [compound 8],EphB Receptor Specificity (% Binding) B1,[4],99%
CC[C@H](C)[C@H](NC(=O)[C@H](CCCNC(=N)N)NC(=O)[C@H](Cc1c[nH]c2ccccc12)NC(=O)[C@H](Cc1c[nH]cn1)NC(=O)[C@@H](N)CC(=O)O)C(=O)N[C@@H](CC(C)C)C(=O)N1CCC[C@H]1C(=O)N[C@@H](Cc1ccccc1)C(=O)N[C@@H](CO)C(=O)N[C@@H](CC(C)C)C(=O)N[C@@H](CO)C(=O)N[C@@H](CO)C(=O)O [compound 10],EphB Receptor Specificity (% Binding) B1,[4],53%
CC[C@H](C)[C@H](NC(=O)[C@@H]1CCCN1C(=O)[C@H](Cc1c[nH]c2ccccc12)NC(=O)[C@H](Cc1c[nH]cn1)NC(=O)[C@@H](N)CO)C(=O)N[C@@H](CO)C(=O)N1CCC[C@H]1C(=O)N[C@@H](Cc1ccc(O)cc1)C(=O)N[C@@H](CO)C(=O)N[C@@H](CC(C)C)C(=O)N[C@@H](CC(C)C)C(=O)N[C@@H](CO)C(=O)O [compound 14],EphB Receptor Specificity (% Binding) B1,[4],39%
CC(C)C[C@H](NC(=O)[C@H](C)NC(=O)[C@@H](N)CC(=O)O)C(=O)N[C@@H](CC(N)=O)C(=O)N[C@@H](CC(=O)O)C(=O)N[C@@H](Cc1c[nH]c2ccccc12)C(=O)N[C@@H](CC(C)C)C(=O)N[C@@H](CC(C)C)C(=O)N[C@@H](Cc1ccccc1)C(=O)N[C@@H](CCCNC(=N)N)C(=O)N1CCC[C@H]1C(=O)N[C@@H](Cc1c[nH]c2ccccc12)C(=O)O [compound 20],EphB Receptor Specificity (% Binding) B1,[4],0%
CC[C@H](C)[C@H](NC(=O)[C@@H]1CCCN1C(=O)CNC(=O)[C@H](CC(N)=O)NC(=O)[C@@H]1CCCN1C(=O)[C@H](CO)NC(=O)[C@H](Cc1ccccc1)NC(=O)[C@H](CC(C)C)NC(=O)[C@H](Cc1ccc(O)cc1)NC(=O)[C@H](CC(N)=O)NC(=O)[C@@H](N)[C@@H](C)O)C(=O)N[C@@H](C)C(=O)O [compound 24],EphB Receptor Specificity (% Binding) B1,[4],5%
CC[C@H](C)[C@H](NC(=O)[C@@H](NC(=O)[C@@H]1CCCN1C(=O)[C@@H](N)CC(N)=O)C(C)C)C(=O)NCC(=O)N1CCC[C@H]1C(=O)N[C@H](C(=O)N[C@@H](CCC(N)=O)C(=O)N[C@@H](CCCNC(=N)N)C(=O)N[C@@H](C)C(=O)N[C@@H](Cc1c[nH]c2ccccc12)C(=O)N[C@H](C(=O)O)[C@@H](C)O)[C@@H](C)CC [compound 27],EphB Receptor Specificity (% Binding) B1,[4],1%
AHTFPYPHPKPH [compound 3],EphB Receptor Specificity (% Binding) B1,[4],100%
same,IC50,[5],~150000 nM
same,EphB Receptor Specificity (% Binding) B2,[6],4%
DHNHNLYNPWRL [compound 21],EphB Receptor Specificity (% Binding) B1,[4],9%
same,EphB Receptor Specificity (% Binding) B2,[6],8%
EWLSPNLAPSVR [compound 1],IC50,[5]; panning receptor EphB1,~10000 nM
same,EphB Receptor Specificity (% Binding) B2,[6],2%
EWYMKFPPEHYF [compound 19],EphB Receptor Specificity (% Binding) B1,[4],22%
FSPQGPAARNFA [compound 25],EphB Receptor Specificity (% Binding) B1,[4],13%
TNYLFSPNGPIARAW [TNYL-RAW],stability in cell conditioned medium,cell conditioned medium in the absence of the cells (FIG. 3C),rapidly lost
same,stability in cell culture medium with PC3 cells,medium replaced with fresh medium just before adding the peptide (FIG. 3B),remained intact for several hours
same,stability in cell conditioned medium with protease inhibitors,"mixture of protease inhibitors (aprotinin, PMSF, leupeptin, pepstatin) added to conditioned medium (FIG. 3D)",reduce peptide instability
TYFDFQAWSIRA [compound 22],EphB Receptor Specificity (% Binding) B1,[4],10%
